US5994361A, “Substituted purinyl derivatives with immunomodulating activity” (priority 1995, dated 1999)
Entries after “also recorded” stand apart in the source; their conditions may differ.

Tests used:
[1] = test system: cytotoxic T lymphocytes, P815 target cells; test: Cytotoxic T lymphocytes (CTL) assay; assay type: cell-based, C57B1/6 mice and DBA/2 mice; details: Mus musculus, P815, 120 h; at 10^-9 M; read-out: CTL activity, % increase compared to IL2 (100%)
Method: Mixed lymphocyte reaction is an in vitro counterpart of the allograft rejection. Briefly, T cell response was obtained when cells taken from two inbred strains from two outbred individuals of any species were mixed in vitro in culture.
After 4 days incubation, ^3 H thymidine uptake and cytotoxicity assay (CTL) were performed.
3 C57B1/6 mice and 3 DBA/2 mice wre killed and lymphocytes prepared using lympholyte M. The cell concentration was adjusted to 10×10^6 cell/ml for each lysis. DBA/2 cells were irradiated with 3000 Rads. 1 ml of the C57 cells+1 ml of the DBA/2 cells+1 ml of the drug at 3 different concentrations were incubated together for 5 days. Positive control was IL-2 at 15 ng/ml final. After 5 days, the CTL and MLR tests were carried out.
P815 target cells were labelled with Cr^51. After labelling, the cells were resuspended to 5×10^4 cells/ml.
100 μl of target cells+100 μl Of T cells were incubated for 4 hrs and then 100 μl of supernatant was counted using a gamma counter.

[2] = test system: spleen cells; test: Immunophenotyping on spleen cells of compound #1 treated mice; assay type: in vivo, C57/BLJ6 mice; details: N = 10
Method: (§1) After in vivo drugs analysis, the drugs were evaluated on whole blood for drug stability and toxicity. Furthermore, in vivo/ex vivo analysis was performed on normal and cyclophosphamide immunosuppressed animals plus 5Fu-treated animals. Cell immunophenotyping was performed on mouse-treatedblood and spleen. The following cell surface antigens were analyzed:
(§2) CD3 (all T cells), CD4 (T helper/inducer, binds class II-restricted T cells), CD8a (cytotoxic T cells, CTL adhesion), CD11a (T, B, NK, some stem cells, CTL adhesion anti LFA-1α), MAC-1 (monocyte/macrophage), NK (natural killer cells), Ly5 (B cells), CD45 (all leukocytes, protein tyrosine phosphates), and TCR (T cell receptor).
(§3) C57/BLJ6 mice (6-8 weeks old) were injected daily for 4 consecutive days, sacrificed at day 5 and immunophenotyping was performed on blood and spleen cells.
(§4) The cells were washed twice in PBS, resuspended in 1 ml of RPMI 2% FBS, and incubated for 45 min. on ice with monoclonal antibody. The cells were washed once, fixed with 1% paraformaldehyde, then analyzed using XL Coulter® counter.

[3] = test system: spleen cells; test: Immunophenotyping on spleen cells, combination with cyclophosphamide; assay type: in vivo, C57/BLJ6 mice; details: in combination with cyclophosphamide
Method: as §1, §2, §3, §4

[4] = test system: DA-3 mammary carcinoma; test: Tumor outgrowth of breast carcinoma, with cyclophosphamide (Example 92); assay type: in vivo, Balb/C mice
Method: Balb/C Mice (n-5/Gr) were used along with DA-3 mammary carcinoma cell line. The mice were treated from -2 to 13 days. Animals were monitored for tumor takes/tumor size and body weights for three weeks from Day 0 until Day 21. D0 was the day of tumor cell inoculation and D21 was the day of experiment termination.
Parameters of effect were measured by inhibition of tumor outgrowth and growth rate [tumors measured along the longest axis (length) and the perpendicular shortest axis (width) and the tumor volumes (T.V.±S.E.) was calculated by the formula T.V.=length (cm)×(width cm)^2 /2.] assessment of body weight loss.
The statistical significance of difference between tumor takes and tumor sizes of control-untreated and drug-treated groups is estimated using the Chi-square and Student's t tests respectively with significance determined at n<0.05.
The mice were divided into the following 5 groups:
Gr.1--Normal Saline (0.2 ml/mouse i.p. starting at D2)
Gr.2--CY (100 mg/kg single bolus i.v. at D0)
Gr.3--Compound #1 (25 mg/kg i.p. starting at D2)
Gr.4--Compound #1 (50 mg/kg i.p. starting at D2)
Gr.5--CY (100 mg/kg i.v. at D0+compound #1 50 mg/kg i.p. starting at D2)

[5] = Body weight, compound #1 with Cytoxan 20 mg/kg (Example 93); assay type: in vivo; details: compound #1 + CTX 20 mg/kg
Method: Combination of compound #1 (25 and 50 mg/kg i.p. daily) plus CTX (20 mg/kg i.v. single bolus) was evaluated against day 4 established DA-3 tumors.

[6] = test system: Fisher male and female rats; test: In vivo toxicity, repeated intravenous injections (Example 96)
Method: The objective of this study was to find the toxic dose of compound #1 after repeated intravenous injections in Fisher male and female rats.
Groups of 3 male rats, and 3 female rats were injected daily i.v. for 5 consecutive days. A first group received 500 mg/kg, a second group 250 mg/kg, and a third group 125 mg/kg. In addition, one male and one female were injected with 1000 mg/kg. An untreated group (male and female) was included in the experiment. For all doses a constant volume of […] was used. Injections were started on day 0 and continued until day 4 (5 days). […] On day 8, the rats were euthanatized and a macroscopic examination of the internal organs was performed.

[7] = 250 mg/kg and 125 mg/kg i.v., 5 days

CN(C)c1ncnc2c1ncn2CCCCCOC(=O)N[C@H](CCCNC(=N)N)C(=O)O [Compound #1, N,N-Dimethylaminopurinyl Pentoxycarbonyl D-Arginine]
activation at 0.001 µM [1]: > 80% | Ly5 (mean) ([2]; 25 mg/kg): 54.08 | TCR+ (mean) ([2]; 25 mg/kg): 39.78 | Ly5 (mean) ([2]; 50 mg/kg): 50.35 | TCR+ (mean) ([2]; 50 mg/kg): 45.09 | Immunophenotyping, spleen [3]: no effect | Tumor takes ([4]; #1 25 mg/kg, day 4): 2/5 | Tumor takes ([4]; #1 25 mg/kg, day 6): 2/5 | Tumor takes ([4]; #1 25 mg/kg, day 8): 3/5 | Tumor takes ([4]; #1 25 mg/kg, day 10): 4/5 | Tumor takes ([4]; #1 50 mg/kg, day 4): 3/5 | Tumor takes ([4]; #1 50 mg/kg, day 6): 3/5 | Tumor takes ([4]; #1 50 mg/kg, day 8): 3/5 | Tumor takes ([4]; #1 50 mg/kg, day 10): 3/5 | Tumor takes ([4]; CY 100 mg/kg + #1 50 mg/kg, day 4): 4/5 | Tumor takes ([4]; CY 100 mg/kg + #1 50 mg/kg, day 6): 5/5 | Tumor takes ([4]; CY 100 mg/kg + #1 50 mg/kg, day 8): 5/5 | Tumor takes ([4]; CY 100 mg/kg + #1 50 mg/kg, day 10): 5/5 | body weight loss [5]: No significant body weight loss | abnormal signs [6, 7]: no abnormal signs | growth curves [6, 7]: normal | changes on necropsy ([6]; 250 mg/kg and 125 mg/kg i.v., day 8): No drug induced changes | signs of toxicity ([6]; 250 mg/kg i.v., 5 consecutive days): no signs of toxicity | growth curves ([6]; 500 mg/kg i.v., 5 days): not affected when compared to controls | lethality or effects on growth ([6]; 500 mg/kg i.v., 5 days): no lethality of effects on the growth of the animals | signs of drug effect ([6]; 500 mg/kg i.v., 5 days): twitches of the torso area, tremors of the forepaws and jumping episods; also recorded: some short lasting abnormal signs | duration of signs ([6]; 500 mg/kg i.v., after each of five injections): less than 1 hour | lethality ([6]; 1000 mg/kg i.v.): lethal | signs of drug effect ([6]; 1000 mg/kg i.v.): severe colonic convulsions | time to death ([6]; 1000 mg/kg i.v., 1 male and 1 female, both died): ≤ 10 min | tolerability ([6]; i.v. in Fisher rats): well tolerated | tolerability (conclusion) ([6]; rat, in vivo): appear to be well tolerated
